According to patent publication US20240041877A1, “DOSAGE REGIME AND METHOD FOR TREATING PULMONARY ARTERIAL HYPERTENSION” (Altavant Sciences GmbH, priority 2019, published 2024):

Assay: Part 2 (MAD): plasma pharmacokinetics after BID oral KAR5585 for 14 days (incl. accumulation ratios and dose proportionality)
[1] = 200 mg/dose Fed Cohort 3, Day 1 PM, Geo. Mean
[2] = 200 mg/dose Fed Cohort 3, Day 1 PM, Mean
[3] = 200 mg/dose Fed Cohort 3, Day 7 AM, Geo. Mean
[4] = 200 mg/dose Fed Cohort 3, Day 7 AM, Mean
[5] = 200 mg/dose Fed Cohort 3, Day 7 PM, Geo. Mean
[6] = 200 mg/dose Fed Cohort 3, Day 7 PM, Mean
[7] = 200 mg/dose Fed Cohort 3, Day 14, Geo. Mean
[8] = 200 mg/dose Fed Cohort 3, Day 14, Mean
[9] = 400 mg/dose Fasted Cohort 4, Day 1 AM, Geo. Mean
[10] = 400 mg/dose Fasted Cohort 4, Day 1 AM, Mean
[11] = 400 mg/dose Fasted Cohort 4, Day 1 PM, Geo. Mean
[12] = 400 mg/dose Fasted Cohort 4, Day 1 PM, Mean
[13] = 400 mg/dose Fasted Cohort 4, Day 7 AM, Geo. Mean
[14] = 400 mg/dose Fasted Cohort 4, Day 7 AM, Mean
[15] = 400 mg/dose Fasted Cohort 4, Day 7 PM, Geo. Mean
[16] = 400 mg/dose Fasted Cohort 4, Day 7 PM, Mean
[17] = 400 mg/dose Fasted Cohort 4, Day 14, Geo. Mean
[18] = 400 mg/dose Fasted Cohort 4, Day 14, Mean
[19] = power model, PK Day 1 (AM), 100 to 400 mg KAR5585 repeat oral doses, fed
[20] = power model, PK Day 7 (AM), 100 to 400 mg KAR5585 repeat oral doses, fed
[21] = power model, PK Day 14 (AM), 100 to 400 mg KAR5585 repeat oral doses, fed

Text: Food effect was to be evaluated in Part 1, Period 2.
Pharmacokinetic data were to be summarized descriptively.

Work on `CCOC(=O)[C@@H]1CC2(CCN(c3cc(O[C@H](c4ccc(Cl)cc4-c4ccccc4)C(F)(F)F)nc(N)n3)CC2)CN1` [KAR5585, (S)-ethyl 8-(2-amino-6-((R)-1-(5-chloro-[1,1′-biphenyl]-2-yl)-2,2,2-trifluoroethoxy)pyrimidin-4-yl)-2,8-diazaspiro[4.5]decane-3-carboxylate] yielded a C12 [1] of 9.57 ng/mL, a CL/F [1] of 493 L/h and a Cmax [1] of 85.4 ng/mL. The Cmax/D [1] was 0.427 (ng/mL)/mg, the t1/2 [1] was 4.24 h and the AUC0-12 [2] was 344 ng·h/mL. The AUC0-24 [2] was 601 ng·h/mL, the AUC0-24/D [2] was 1.5 (hr*ng/mL)/mg and the “AUC0-∞” value [2] was 417 ng·h/mL. The C12 [2] was 9.92 ng/mL, the CL/F [2] was 507 L/h and the Cmax [2] was 90.9 ng/mL. For the same compound, the Cmax/D [2] was 0.455 (ng/mL)/mg, the t1/2 [2] was 4.34 h and the AUC0-12 [3] was 217 ng·h/mL. For the same compound, the “AUC0-∞” value [3] was 256 ng·h/mL, the C12 [3] was 7.36 ng/mL and the CL/F [3] was 924 L/h. The Cmax [3] was 45.6 ng/mL, the Cmax/D [3] was 0.228 (ng/mL)/mg and the t1/2 [3] was 4.21 h. It also gave an AUC0-12 [4] of 230 ng·h/mL, a C12 [4] of 7.71 ng/mL and a CL/F [4] of 978 L/h. The Cmax [4] was 48.8 ng/mL, the Cmax/D [4] was 0.244 (ng/mL)/mg and the t1/2 [4] was 4.30 h. It also gave a Tmax (200 mg/dose Fed Cohort 3, Day 7 AM, Median) of 3.0 h, an AUC0-12 [5] of 201 ng·h/mL and an AUC0-24 [5] of 414 ng·h/mL. The AUC0-24/D [5] was 1.03 (hr*ng/mL)/mg, the “AUC0-∞” value [5] was 289 ng·h/mL and the C12 [5] was 11.3 ng/mL. The CL/F [5] was 869 L/h, the Cmax [5] was 39.1 ng/mL and the Cmax/D [5] was 0.195 (ng/mL)/mg. The t1/2 [5] was 5.58 h, the AUC0-12 [6] was 207 ng·h/mL and the AUC0-24 [6] was 431 ng·h/mL. For the same compound, the AUC0-24/D [6] was 1.08 (hr*ng/mL)/mg, the “AUC0-∞” value [6] was 290 ng·h/mL and the C12 [6] was 12.2 ng/mL. For the same compound, the CL/F [6] was 890 L/h, the Cmax/D [6] was 0.213 (ng/mL)/mg and the t1/2 [6] was 6.20 h. For the same compound, the AUC0-24 [7] was 199 ng·h/mL, the AUC0-24/D [7] was 0.993 (hr*ng/mL)/mg and the C24 [7] was “BLQ”. For the same compound, the CL/F [7] was 1130 L/h, the Cmax/D [7] was 0.217 (ng/mL)/mg and the AUC0-12 [8] was 188 ng·h/mL. The AUC0-24 [8] was 212 ng·h/mL, the AUC0-24/D [8] was 1.06 (hr*ng/mL)/mg and the “AUC0-∞” value [8] was 216 ng·h/mL. The C24 [8] was “BLQ”, the CL/F [8] was 1200 L/h and the Cmax [8] was 48.8 ng/mL. For the same compound, the Cmax/D [8] was 0.244 (ng/mL)/mg, the “Mean CL/F, Day 1” value (400 mg KAR5585 BID, fed) was 1730 L/h and the “Mean steady-state CL/F, Day 14” value (400 mg KAR5585 BID, fed) was 1140 L/h. The AUC0-12 [9] was 253 ng·h/mL, the “AUC0-∞” value [9] was 272 ng·h/mL and the C12 [9] was 7.44 ng/mL. For the same compound, the CL/F [9] was 1470 L/h, the Cmax [9] was 74.0 ng/mL and the Cmax/D [9] was 0.185 (ng/mL)/mg. It also gave a t1/2 [9] of 3.00 h, an AUC0-12 [10] of 281 ng·h/mL and a C12 [10] of 7.49 ng/mL. The CL/F [10] was 1730 L/h, the Cmax [10] was 81.8 ng/mL and the Cmax/D [10] was 0.205 (ng/mL)/mg. For the same compound, the AUC0-12 [11] was 501 ng·h/mL, the AUC0-24/D [11] was 0.950 (hr*ng/mL)/mg and the “AUC0-∞” value [11] was 633 ng·h/mL. For the same compound, the C12 [11] was 16.6 ng/mL, the CL/F [11] was 632 L/h and the Cmax/D [11] was 0.276 (ng/mL)/mg. For the same compound, the t1/2 [11] was 4.18 h, the AUC0-12 [12] was 528 ng·h/mL and the AUC0-24/D [12] was 1.01 (hr*ng/mL)/mg. For the same compound, the “AUC0-∞” value [12] was 657 ng·h/mL, the C12 [12] was 17.1 ng/mL and the CL/F [12] was 662 L/h. For the same compound, the Cmax [12] was 124 ng/mL, the Cmax/D [12] was 0.310 (ng/mL)/mg and the t1/2 [12] was 4.33 h. The AUC0-12 [13] was 473 ng·h/mL, the “AUC0-∞” value [13] was 577 ng·h/mL and the C12 [13] was 15.1 ng/mL. For the same compound, the CL/F [13] was 846 L/h, the Cmax [13] was 93.3 ng/mL and the Cmax/D [13] was 0.228 (ng/mL)/mg. The t1/2 [13] was 4.65 h, the AUC0-12 [14] was 483 ng·h/mL and the “AUC0-∞” value [14] was 588 ng·h/mL. For the same compound, the C12 [14] was 15.5 ng/mL, the CL/F [14] was 865 L/h and the Cmax [14] was 95.9 ng/mL. For the same compound, the Cmax/D [14] was 0.240 (ng/mL)/mg, the t1/2 [14] was 4.90 h and the AUC0-12 [15] was 394 ng·h/mL. For the same compound, the AUC0-24/D [15] was 1.09 (hr*ng/mL)/mg, the “AUC0-∞” value [15] was 534 ng·h/mL and the C12 [15] was 20.1 ng/mL. The CL/F [15] was 954 L/h, the Cmax [15] was 63.4 ng/mL and the Cmax/D [15] was 0.158 (ng/mL)/mg. The t1/2 [15] was 4.92 h, the AUC0-12 [16] was 404 ng·h/mL and the AUC0-24 [16] was 887 ng·h/mL. The AUC0-24/D [16] was 1.11 (hr*ng/mL)/mg, the “AUC0-∞” value [16] was 538 ng·h/mL and the C12 [16] was 20.8 ng/mL. For the same compound, the CL/F [16] was 969 L/h, the Cmax/D [16] was 0.172 (ng/mL)/mg and the t1/2 [16] was 4.93 h. The AUC0-12 [17] was 359 ng·h/mL, the AUC0-24 [17] was 433 ng·h/mL and the AUC0-24/D [17] was 1.08 (hr*ng/mL)/mg. The “AUC0-∞” value [17] was 465 ng·h/mL, the C12 [17] was 11.0 ng/mL and the CL/F [17] was 1110 L/h. The Cmax [17] was 85.3 ng/mL, the Cmax/D [17] was 0.213 (ng/mL)/mg and the t1/2 [17] was 6.08 h. The AUC0-12 [18] was 366 ng·h/mL, the AUC0-24 [18] was 444 ng·h/mL and the AUC0-24/D [18] was 1.11 (hr*ng/mL)/mg. The CL/F [18] was 1140 L/h, the Cmax/D [18] was 0.222 (ng/mL)/mg and the Tmax (400 mg/dose Fasted Cohort 4, Day 14, Median) was 1.5 h. The “steady-state plasma levels achieved by” value (BID oral KAR5585 for 14 days) was no more than 7 days, the “Dose proportionality analysis, AUC0-12: Intercept estimate” value [19] was 0.969 and the “Dose proportionality analysis, AUC0-inf: Intercept estimate” value [19] was 0.817. The “Dose proportionality analysis, Cmax: Intercept estimate” value (“Dose proportionality analysis, Cmax” below) [19] was 0.198, the “Dose proportionality analysis, AUC0-12: Intercept estimate” value [20] was 1.51 and the “Dose proportionality analysis, Cmax” value [20] was 0.688. The “Dose proportionality analysis, AUC0-12: Intercept estimate” value [21] was 2.37 and the “Dose proportionality analysis, Cmax” value [21] was 0.705.
